Test results: patent US20090130165A1, “MIF Inhibitors” (Cortical Pty Ltd, priority 2005, published 2009)
In brackets after ≈: the same amount, converted by molar mass. Where two headings read alike, the source gives them in different places.

How the values were obtained:
[1] = biological target: T1, immobilized recombinant MIF protein (Homo sapiens, UniProt P14174); experiment: Interaction of compounds with MIF protein by Surface Plasmon Resonance (Biacore S51); type: binding; settings: SPR; for kon / Kinetics Method Kd (10^−3 s^−1) / Kd: immobilized MIF; for kon: association rate, read-out: Kinetics Method Ka (10^3 M^−1s^−1); for Kinetics Method Kd (10^−3 s^−1): dissociation rate; for equilibrium dissociation constant (KD) values, in words: immobilized recombinant MIF
T1 sequence (P14174 2-115 limits assumed): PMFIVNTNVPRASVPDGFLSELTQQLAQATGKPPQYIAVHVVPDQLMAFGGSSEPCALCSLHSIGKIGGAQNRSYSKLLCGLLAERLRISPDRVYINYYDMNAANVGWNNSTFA
Method: The interaction of compounds with MIF protein was characterized by Surface Plasmon Resonance (SPR) analysis using an S51 (Biacore International AB) automated small molecule biosensor assay system. Recombinant MIF protein was immobilized on a carboxymethyl dextran biosensor chip using amine coupling chemistry. Compound binding to the immobilized MIF protein was measured at 11 concentrations up to 100 uM (in duplicate), with corrections for the DMSO used as a solvent at a final concentration of 5%. The change in SPR output relative to that of a control underivatized reference spot was recorded over time. The affinity and stoichiometry of interaction was calculated using steady state and/or kinetics evaluation methods with software supplied by the manufacturer.

[2] = system: LPS-induced IL-6 production in RAW264.7 mouse macrophage cell line; experiment: Inhibition of LPS-induced production of IL-6 in RAW264.7 macrophages; type: cell-based; settings: 50 uM compound, 100 ng/ml LPS 4 hr, RAW264.7 cells, relative to LPS+DMSO control
Method: MIF is an important factor in the innate immune response to toxins such as the bacterial endotoxin lipopolysaccharide (LPS). […] A compound with the ability to inhibit the biological activity of MIF would therefore inhibit the activation of cytokine production by macrophages in response to LPS. The RAW264.7 mouse macrophage cell line was propagated in DMEM/10% foetal calf serum (FCS) at 37° C. in 5% CO2. 24 hr prior to assay cells were seeded in 96-well tissue culture plates. Cells were allowed to adhere for 4 hr prior to transfer to DMEM/0.5% FCS for 18 hr. Cells were then treated with 50 uM compound in DMSO for 30 min prior to stimulation for 4 hr with 100 ng/ml LPS. Cell culture supernatants were then collected from each well and assayed for IL-6 levels by ELISA (R&D Systems) according to the manufacturer's instructions.

[3] = system: mice; experiment: Delayed-type hypersensitivity reaction to mBSA, footpad swelling; type: in vivo, mouse; settings: 5 and 15 mg/kg/24 h IP, twice daily for 7 days prior to mBSA challenge and further 24 h (FIG. 4)
Text: Delayed-type hypersensitivity reactions, which are initiated by T lymphocyte responses to recall antigens and mediated by many cell types including macrophages, are known to be dependent on the cytokine or biological activity of MIF^(16,17). For example, an anti-MIF monoclonal antibody suppresses delayed-type hypersensitivity reactions in vivo to methylated bovine scrum albumin (mBSA) injected into the skin of animals preimmunised with mBSA^(16). A compound inhibiting die cytokine or biological function of MIF might be expected to inhibit delayed-type hypersensitivity reactions in vivo.
Mice were immunised on day 0 with 200 μg of methylated BSA (mBSA; Sigma Chemical Co., Castle Hill, Australia) emulsified in 0.2 ml of Freund's complete adjuvant (CFA; Sigma) injected subcutaneously in the flank skin. At day 7, mice were given 100 μg mBSA in 0.1 ml CFA by intradermal injection at the base of the tail. […] Mice were killed 24 h later and footpad swelling quantified using micro calipers (Mitutoyo, Kawasaki-shi, Japan). […] Results were expressed as the difference in footpad swelling between mBSA and saline-injected footpads, and expressed as change in footpad thickness (mm). […] Treatment with compound 13 continued for a further 24 h and changes in footpad thickness relative to control paws were measured at that time.

[4] = system: C57Bl/6j mice; experiment: In vivo assay of MIF antagonism: murine endotoxic shock model, serum TNF; design: species or system mouse; settings: intra-peritoneal, 10, 1 and 0.1 mg/kg at 24 hours and 1 hour before LPS 1 mg/kg (FIG. 3)
Method: The activities of compounds were studied in the murine endotoxic shock model. This model has been previously shown to be dependent on MIF^(14). Administration of a compound which inhibits the cytokine activity of MIF would be expected to result hi a reduction in serum level s of the pro-inflammatory cytokine TNF.
Endotoxaemia was induced by intra-peritoneal Injection of C57Bl/6j mice with lipopolysaccharide (LPS) (1 mg/kg) in 200 μl saline. Animals were treated with either a saline solution (control) only, or LPS with vehicle or compounds B1 and A3 in vehicle at doses of 10, 1 and 0.1 mg/kg body weight, administered by intra-peritoncal injection at 24 hours and 1 hour before intra-peritoneal LPS injection. After 1 hour mice were humanely killed by CO2 inhalation then neck dislocation. Serum was obtained from blood obtained by cardiac puncture prior to death and measured for TNF levels by ELISA according to the manufacturer's instructions.

[5] = system: Recombinant human MIF-induced leukocyte-endothelial cell adhesion in mice; experiment: rhMIF-induced leukocyte adhesion, intravital microscopy of cremaster muscle; type: in vivo, mouse; settings: 30 mg/kg intraperitoneal 10 minutes prior to intrascrotal MIF, 4 hours (FIG. 5)
Text: As will be known to those skilled in the art, the adherence of leukocytes to the endothelium in vivo can be studied using the technique of intravital microscopy^(18,19). As MIF induces leukocyte adherence to vascular endothelium as measured using intravital microscopy, a compound inhibiting the Cytokine or biological activity of MIF might be expected to inhibit the effects of MIF observable using intravital microscopy.
Mice were anesthetised with ketamine/xylazine, and the cremaster muscle was exteriorized onto an optically-clear viewing pedestal. The cremasteric microcirculation was visualized using an intravital microscope (Axioplan 2 Imaging; Carl Zeiss, Australia) with a 20× objective lens (LD Achroplan 20×/0.40 NA, Carl Zeiss, Australia) and a 10× eyepiece. Three-five postcapillary venules (25-40 μm in diameter) were examined for each experiment. Images were visualized using a video camera and recorded on video-tape for subsequent playback analysis. Recombinant human MIF ([…]) was injected intrascrotally in 150 μL saline, prior to intravital microscopy 4 hours later. Leukocyte-endothelial cell adhesion, was assessed as described by Gregory et al^(19). Compound 13 at a dose of 30 mg/kg or vehicle were administered by intraperitoneal injection 10 minutes prior to intrascrotal injection of MIF.

[6] = system: IL-1 induced COX-2 expression in S112 human dermal fibroblasts; experiment: Inhibition of interleukin-1 induction of cyclooxygenase-2 expression in S112 human dermal fibroblasts; type: cell-based; settings: S112 cells, up to 100 μM compound, IL-1 0.1 ng/ml, 6 hours (FIG. 2)
Text: The activity of compounds was studied in a bioassay for MIF-dependent cytokine effects of human S112 dermal fibroblasts. In these cells the induction of the expression of cyclooxygenase-2 (COX-2) protein by interleukin 1 (IL-1) is dependent upon the presence of endogenous MIF^(13). The expression of COX2 proteins is therefore sensitive to depiction of endogenous MIF by neutralizing antibody, gene knockout of targeting with small molecule inhibitors. A compound with the ability to inhibit the biological activity of MIF would therefore inhibit die activation of COX2 expression hi response to IL-1.
S112 human dermal fibroblasts were propagated in RPMI/10% foetal calf serum (FCS). Prior to experimentation, cells were seeded at 10^5 cells/ml in RPMI/0.1% BSA for 18 hours. Cells were treated with recombinant human IL-1 (0.1 ng/ml) and with each compound at concentrations ranging up to 100 μM. A control was treated only with recombinant human TL-1 (0.1 ng/ml) and vehicle (DMSO). After 6 hours, cells were collected and intracellular COX-2 protein determined by permeabilisation flow cytometry. […] Cellular fluorescence was determined using a flow cytometer. At least 5000 events were counted for each reading, each of which was performed in duplicate, and the results expressed in mean fluorescence intensity (MFI) after subtraction of negative control-labelled cell fluorescence.

[7] = system: LPS-induced IL-6 production in RAW264.7 mouse macrophage cell line; experiment: Inhibition of LPS-induced production of IL-6 in RAW264.7 macrophages; type: cell-based; settings: RAW264.7 cells, up to 100 μM compound (FIG. 1)
[8] = biological target: T2, Recombinant human MIF protein (Homo sapiens, UniProt P14174); experiment: Inhibition of MIF tautisomerase activity (L-dopachrome); type: biochemical; settings: mean±standard deviation of 2-4 experiments
T2 sequence (P14174 2-115 limits assumed): T1 sequence (P14174 2-115 limits assumed)
Method: MIF protein has the ability in vitro to catalyze the tautisomerization of dopachrome^(15).
Recombinant human MIF protein was pre-incubated with compounds as indicated prior to the addition of L-dopachrome substrate. Tautomerase activity was determined by measurement of die decrease in absorbance at 475 nm after 2 min. […]

[9] = Lower limits of aqueous solubility by nephelometry; type: physicochemical; settings: phosphate-buffered saline with 0.005% (v/v) P20 and 5% DMSO, aqueous with cosolvent or surfactant or cyclodextrin, kinetic from dmso stock, 0.005% (v/v) P20, 5% DMSO, read-out: Solubility Lower Limit Range
Method: Lower limits of aqueous compound solubility were determined in a nepholometer in phosphate-buffered saline containing 0.005% (v/v) P20 and a final concentration of 5% DMSO. Briefly, compounds were initially dissolved in DMSO as a 10 mM stock solution and diluted to 1 mM and 0.5 mM working solutions with neat DMSO. The compounds were then titrated in DMSO and a constant volume of DMSO stock added to filtered PBS/P20 solution so that the final DMSO concentration was 5%. The solubility was then determined in clear, flat-bottom 96-well plates using the nephelometer and reported as the concentration range at which the compound begins to precipitate from solution.

[10] = kinetics evaluation, read-out: Kinetics Method Kd
[11] = steady state evaluation, 5% DMSO, read-out: Steady State Method (equilibrium dissociation constant KD)

Structure (SMILES)	kon [1] [M⁻¹ s⁻¹]	Kinetics Method Kd (10^−3 s^−1) [1]	Kd [1, 10] [µM]	Kd [1, 11] [µM]	equilibrium dissociation constant (KD) values, in words [1]	inhibition at 50 µM [2] [%]	inhibition of DTH reactions (change in footpad thickness), in words [3]	suppression of LPS-induced serum TNF levels, in words [4]	reduction of MIF-induced leukocyte adhesion [5]	inhibition of IL-1 induced COX-2 expression, in words [6]	IC50 ([7]; Mus musculus) [µM]	inhibition of LPS-induced IL-6 production, in words [7]	inhibition at 50 µM ([8]; 50 uM compound) [%]	inhibition at 100 µM ([8]; 100 uM compound) [%]	solubility [9] [µg/mL]
O=C(O)CCSCC(=O)c1cc2c(cc1Cl)NC(=O)C2 [Compound 13, 3-((2-(6-chloro-2-oxo-2,3-dihydro-1H-indol-5-yl)-2-oxoethyl)thio)propanoic acid]	600 ± 200	1.3 ± 0.3 10^−3 s^−1	2.5 ± 1.2	10 ± 1.4	low micromolar range	32 ± 30	significant inhibition	significant dose-dependent suppression	approximately 50%	–	–	–	–	–	–
O=C(O)CCSCC(=O)c1ccc2c(c1)CC(=O)N2 [Compound 2]	–	–	–	–	–	–	–	significant dose-dependent suppression	–	dose-dependent inhibition	–	–	–	–	–
CCCCSCC(=O)c1ccc2[nH]c(=O)sc2c1 [Compound 19, 6-((Butylthio)acetyl)-1,3-benzothiazol-2(3H)-one]	2200 ± 1000	6.2 ± 1.2 10^−3 s^−1	3.6 ± 1	27 ± 2.3	low micromolar range	82 ± 13	–	significant dose-dependent suppression	–	–	20	dose-dependent inhibition	9 ± 4	17 ± 8	–
O=C(CSCCCCCCO)c1ccc2[nH]c(=O)oc2c1 [Compound 15, 6-(((6-Hydroxyhexyl)thio)acetyl)-1,3-benzoxazol-2(3H)-one]	–	–	–	–	–	42 ± 40	–	significant dose-dependent suppression	–	–	–	–	–	–	77 to 250 (≈ 249 to 808 µM)
O=C(O)CCSCC(=O)c1ccc2[nH]c(=O)[nH]c2c1 [Compound 4, 3-((2-oxo-2-(2-oxo-2,3-dihydro-1H-benzimidazol-5-yl)ethyl)thio)propanoic acid]	–	–	–	5.1	low micromolar range	5 ± 49	–	significant dose-dependent suppression	–	–	–	–	–	–	> 140
